ChEMBL document CHEMBL4765295, “Synthesis, pharmacological profile and 2D-QSAR studies of curcumin-amino acid conjugates as potential drug candidates” (Eur J Med Chem, 2020)
Values joined by “and” are separate entries in the source; they are usually repeats but may differ in a detail not shown here. Equal entries are not always repeated.

Key:
[1] = system: PC-3; assay: Antiproliferative activity against human PC3 cells assessed as inhibition of cell growth after 72 hrs by MTT assay; assay type: functional, cell-based; conditions: PC-3, 72 h
[2] = system: Rattus norvegicus; assay: Antiinflammatory activity in Wistar rat model of carrageenan-induced paw edema assessed as reduction in thickness of paw edema at 10 mg/kg, ip pretreated for 1 hr followed by carrageenan challenge and measured after 2 hrs (reference value: 2.06 +/-0.09 mm); assay type: functional; conditions: time 3 hrs
[3] = system: Rattus norvegicus; assay: Anti-inflammatory activity in Wistar rat assessed as inhibition of carrageenan-induced paw edema at 10 mg/kg, ip pretreated for 1 hr followed by carrageenan challenge and measured after 4 hr relative to indomethacin; assay type: functional; conditions: time 5 hrs
[4] = system: Rattus norvegicus; assay: Anti-inflammatory activity in Wistar rat assessed as inhibition of carrageenan-induced paw edema at 10 mg/kg, ip pretreated for 1 hr followed by carrageenan challenge and measured after 2 hr relative to control (reference value: 0.00 +/-0.03 %); assay type: functional; conditions: time 3 hrs
[5] = system: Candida albicans; assay: Antifungal activity against Candida albicans incubated for 18 to 24 hrs by CLSI method; assay type: functional; conditions: time 18-24 hrs
[6] = system: Splenocyte; assay: Immunomodulatory activity in Swiss albino mouse splenocytes assessed as cell viability at 10 uM by measuring inhibition of stimulation index incubated for 72 hrs in presence of mitogenic stimulus phytohaemagglutinin by MTT assay relative to indomethacin; assay type: functional; conditions: read-out: Activity
[7] = system: Peritoneal macrophage; assay: Antiinflammatory activity in […] mouse Peritoneal macrophages assessed as reduction in LPS-induced NO production by measuring reduction in stimulation index at 10 uM preincubated for 1 hr followed by LPS stimulation measured after 24 hrs by Griess method (reference value: 27.31 +/- 2.56 uM); assay type: functional; conditions: time 25 hrs
[8] = system: Mus musculus; assay: Analgesic activity in albino mouse assessed as forepaw licking/jumping latency time at 10 mg/kg, ip measured after 120 mins by hot plate test (reference value: 2.62 +/- 0.06 sec); assay type: functional; conditions: 2 h
[9] = system: Rattus norvegicus; assay: Antiinflammatory activity in Wistar rat model of carrageenan-induced paw edema assessed as reduction in thickness of paw edema at 10 mg/kg, ip pretreated for 1 hr followed by carrageenan challenge and measured after 3 hrs (reference value: 1.79 +/-0.07 mm); assay type: functional; conditions: time 4 hrs
[10] = system: Rattus norvegicus; assay: Antiinflammatory activity in Wistar rat model of carrageenan-induced paw edema assessed as reduction in thickness of paw edema at 10 mg/kg, ip pretreated for 1 hr followed by carrageenan challenge and measured after 24 hrs (reference value: 0.83 +/-0.08 mm); assay type: functional; conditions: time 25 hrs
[11] = system: Mus musculus; assay: Analgesic activity in albino mouse assessed as forepaw licking/jumping latency time at 10 mg/kg, ip measured after 60 mins by hot plate test (reference value: 3.42 +/- 0.03 sec); assay type: functional; conditions: 1 h
[12] = system: Mus musculus; assay: Analgesic activity in albino mouse assessed as forepaw licking/jumping latency time at 10 mg/kg, ip measured after 90 mins by hot plate test (reference value: 2.72 +/- 0.01 sec); assay type: functional; conditions: 1.5 h
[13] = system: Rattus norvegicus; assay: Anti-inflammatory activity in Wistar rat assessed as inhibition of carrageenan-induced paw edema at 10 mg/kg, ip pretreated for 1 hr followed by carrageenan challenge and measured after 4 hr relative to control (reference value: 0.00 +/-0.4 %); assay type: functional; conditions: time 5 hrs
[14] = system: Mus musculus; assay: Analgesic activity in albino mouse assessed as protection at 10 mg/kg, ip measured after 120 mins by hot plate test relative to indomethacin; assay type: functional; conditions: 2 h
[15] = system: Rattus norvegicus; assay: Antiinflammatory activity in Wistar rat model of carrageenan-induced paw edema assessed as reduction in thickness of paw edema at 10 mg/kg, ip pretreated for 1 hr followed by carrageenan challenge and measured after 4 hrs (reference value: 1.40 +/-0.10 mm); assay type: functional; conditions: time 5 hrs
[16] = system: Mus musculus; assay: Analgesic activity in albino mouse assessed protection against acetic acid-induced abdominal writhing at 10 mg/kg, ip pretreated for 1 hr followed by acetic acid challenge and measured starting 5 mins post acetic acid challenge for 10 mins relative to control (reference value: 0 %); assay type: functional; conditions: time 75 min, 1.25 h
[17] = system: Mus musculus; assay: Analgesic activity in albino mouse assessed as protection at 10 mg/kg, ip measured after 30 mins by hot plate test (reference value: 0 %); assay type: functional; conditions: 0.5 h
[18] = system: Splenocyte; assay: Immunomodulatory activity in Swiss albino mouse splenocytes assessed as cell viability at 10 uM by measuring stimulation index incubated for 72 hrs in presence of mitogenic stimulus phytohaemagglutinin by MTT assay (reference value: 1.00 +/- 0.24); assay type: functional
[19] = system: Staphylococcus aureus; assay: Antibacterial activity against Staphylococcus aureus ATCC 25923 incubated for 18 hrs by agar dilution method; assay type: functional
[20] = system: Mus musculus; assay: Analgesic activity in albino mouse assessed as protection at 10 mg/kg, ip measured after 120 mins by hot plate test (reference value: 0 %); assay type: functional; conditions: 2 h
[21] = system: Rattus norvegicus; assay: Anti-inflammatory activity in Wistar rat assessed as inhibition of carrageenan-induced paw edema at 10 mg/kg, ip pretreated for 1 hr followed by carrageenan challenge and measured after 1 hr relative to control (reference value: 0.00 +/-0.02 %); assay type: functional; conditions: time 2 hrs
[22] = system: Mus musculus; assay: Analgesic activity in albino mouse assessed as protection at 10 mg/kg, ip measured after 90 mins by hot plate test (reference value: 0 %); assay type: functional; conditions: 1.5 h
[23] = system: A549; assay: Antiproliferative activity against human A549 cells assessed as inhibition of cell growth after 72 hrs by MTT assay; assay type: functional, cell-based; conditions: A549, 72 h
[24] = Ulcerogenic activity in fasted albino mouse assessed as average number of ulcers in gastric mucosa at 10 mg/kg, po for 3 days (reference value: 0); assay type: toxicity, organism-based; conditions: in vivo, 72 h, time 3 day
[25] = system: Rattus norvegicus; assay: Antiinflammatory activity in Wistar rat model of carrageenan-induced paw edema assessed as reduction in thickness of paw edema at 10 mg/kg, ip pretreated for 1 hr followed by carrageenan challenge and measured after 1 hr (reference value: 2.41 +/-0.05 mm); assay type: functional; conditions: time 1 hr after carrageenan
[26] = system: Peritoneal macrophage; assay: Antiinflammatory activity in […] mouse Peritoneal macrophages assessed as inhibition of LPS-induced NO production at 10 uM preincubated for 1 hr followed by LPS stimulation measured after 24 hrs by Griess method relative to control (reference value: 0.0 %); assay type: functional; parameters: scale not given: the % may be the effect or the level left; conditions: time 25 hrs
[27] = system: MCF7; assay: Antiproliferative activity against human MCF7 cells assessed as inhibition of cell growth after 72 hrs by MTT assay; assay type: functional, cell-based; conditions: MCF7, 72 h
[28] = system: Rattus norvegicus; assay: Anti-inflammatory activity in Wistar rat assessed as inhibition of carrageenan-induced paw edema at 10 mg/kg, ip pretreated for 1 hr followed by carrageenan challenge and measured after 24 hr relative to control (reference value: 0.00 +/-0.3 %); assay type: functional; conditions: time 25 hrs
[29] = system: Streptococcus pyogenes; assay: Antibacterial activity against Streptococcus pyogenes ATCC 19615 incubated for 18 hrs by agar dilution method; assay type: functional
[30] = system: Pseudomonas aeruginosa; assay: Antibacterial activity against Pseudomonas aeruginosa ATCC 27853 incubated for 18 hrs by agar dilution assay; assay type: functional
[31] = system: Mus musculus; assay: Analgesic activity in albino mouse assessed as forepaw licking/jumping latency time at 10 mg/kg, ip measured after 30 mins by hot plate test (reference value: 5.02 +/- 0.09 sec); assay type: functional; conditions: 0.5 h
[32] = Ulcerogenic activity in fasted albino mouse assessed as incidence of gastric ulceration at 10 mg/kg, po for 3 days (reference value: 0 %); assay type: toxicity, organism-based; conditions: in vivo, 72 h, time 3 day
[33] = Ulcerogenic activity in fasted albino mouse assessed as average severity of ulcers in gastric mucosa at 10 mg/kg, po for 3 days (reference value: 0); assay type: toxicity, organism-based; conditions: in vivo, 72 h, time 3 day
[34] = system: Rattus norvegicus; assay: Anti-inflammatory activity in Wistar rat assessed as inhibition of carrageenan-induced paw edema at 10 mg/kg, ip pretreated for 1 hr followed by carrageenan challenge and measured after 3 hr relative to control (reference value: 0.00 +/-0.1 %); assay type: functional; conditions: time 4 hrs
[35] = system: Mus musculus; assay: Analgesic activity in albino mouse assessed as protection at 10 mg/kg, ip measured after 60 mins by hot plate test (reference value: 0 %); assay type: functional; conditions: 1 h
[36] = Ulcerogenic activity in fasted albino mouse assessed as ulcer index in gastric mucosa at 10 mg/kg, po for 3 days (reference value: 0); assay type: toxicity, organism-based; conditions: in vivo, 72 h, time 3 day
[37] = system: Salmonella typhimurium; assay: Antibacterial activity against Salmonella typhimurium ATCC 19430 incubated for 18 hrs by agar dilution assay; assay type: functional, Salmonella enterica subsp. enterica serovar Typhimurium; conditions: Salmonella enterica
[38] = Toxicity in albino mouse assessed as induction of toxic symptoms at 50 to 100 mg/kg, ip measured after 24 hrs; assay type: organism-based; conditions: in vivo, dose 50-100 mg/kg
[39] = system: Mus musculus; assay: Analgesic activity in albino mouse assessed reduction in acetic acid-induced abdominal writhing by measuring writing reflex at 10 mg/kg, ip pretreated for 1 hr followed by acetic acid challenge and measured starting 5 mins post acetic acid challenge for 10 mins (reference value: 42.4 +/- 1.02); assay type: functional; conditions: time 75 min, 1.25 h
[40] = system: Mus musculus; assay: Analgesic activity in albino mouse assessed protection against acetic acid-induced abdominal writhing at 10 mg/kg, ip pretreated for 1 hr followed by acetic acid challenge and measured starting 5 mins post acetic acid challenge for 10 mins relative to indomethacin; assay type: functional; conditions: time 75 min, 1.25 h

SMILES | IC50 [1] [µM] | Activity [2] [mm] | inhibition in vivo at 10 mg/kg [3] [%] | inhibition in vivo at 10 mg/kg [4] [%] | MIC [5] | viability at 10 µM [6] [%] | Activity [7] [µM] | Time [8] [s] | Activity [9] [mm] | Activity [10] [mm] | Time [11] [s] | Time [12] [s] | inhibition in vivo at 10 mg/kg [13] [%] | Activity [14] [%] | Activity [15] [mm] | Activity [16] [%] | Activity [17] [%] | Activity_index [18] | MIC [19] | Activity [20] [%] | also measured
COc1cc(/C=C/C(=O)/C=C(O)/C=C/c2ccc(OC(=O)[C@@H](C)N)c(OC)c2)ccc1OC(=O)[C@@H](C)N.Cl.Cl | 30.7 | 0.79 | 110 | 62 | 0.125 µg/mL and 0.214 µM | 89.6 | 16.04 | 4.02 | 0.46 | 0.59 | 5.82 | 4.72 | 96 | 127.1 | 0.06 | 67.5 | 5.6 | 1.35 | 0.125 µg/mL and 0.214 µM | 53.4 | inhibition in vivo at 10 mg/kg [21]: 61%; Activity [22]: 73.5%; IC50 [23]: 30.9 µM; Activity [24]: 0; Activity [25]: 0.95 mm; Activity [26]: 41.26%; IC50 [27]: 10.4 µM; inhibition in vivo at 10 mg/kg [28]: 29%; MIC [29]: 0.25 µg/mL and 0.428 µM; MIC [30]: 1 µg/mL and 1.71 µM; Time [31]: 5.3 s; Activity [32]: 0%; Activity [33]: 0; inhibition in vivo at 10 mg/kg [34]: 74%; Activity [35]: 70.2%; UI [36]: 0; MIC [37]: 0.25 µg/mL and 0.428 µM; Activity [38]: Non-Toxic; Activity [39]: 13.8; Activity [40]: 109.6%
COc1cc(/C=C/C(=O)/C=C(O)/C=C/c2ccc(OC(=O)[C@@H](N)CCSC)c(OC)c2)ccc1OC(=O)[C@@H](N)CCSC.Cl.Cl | 42.6 | 0.62 | 111 | 70 | 0.5 µg/mL and 0.711 µM | 81.3 | 16.95 | 4.28 | 0.49 | 0.53 | 5.02 | 4.98 | 97 | 151 | 0.04 | 35.8 | 5.2 | 1.49 | 0.25 µg/mL and 0.355 µM | 63.4 | inhibition in vivo at 10 mg/kg [21]: 64%; Activity [22]: 83.1%; IC50 [23]: 32.8 µM; Activity [24]: 0; Activity [25]: 0.86 mm; Activity [26]: 37.94%; IC50 [27]: 11.3 µM; inhibition in vivo at 10 mg/kg [28]: 36%; MIC [29]: 0.5 µg/mL and 0.711 µM; MIC [30]: 0.5 µg/mL and 0.711 µM; Time [31]: 5.28 s; Activity [32]: 0%; Activity [33]: 0; inhibition in vivo at 10 mg/kg [34]: 73%; Activity [35]: 46.8%; UI [36]: 0; MIC [37]: 0.125 µg/mL and 0.178 µM; Activity [38]: Non-Toxic; Activity [39]: 27.2; Activity [40]: 58.1%
